Legend:
potassium arsenate = compound: O=[As]([O-])(O)O.[K+] [potassium arsenate]; assay: thermal stability z-score vs DMSO; higher = more thermally stabilized by treatment; conditions: HeLa; arsenate concentration 1 mM
Protocol: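 Cellular thermal proteome profiling in HeLa cells treated with 1 mM arsenate for 1 h (DMSO pretreatment), heated to ten temperatures (37-66.3 °C). Soluble protein was quantified by TMT mass spectrometry relative to DMSO controls; the thermal stability score was transformed to a z-score; mean of n = 3 experiments.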

lipoamide = compound: NC(=O)CCCCC1CCSS1 [lipoamide]; assay: as above; conditions: HeLa, lipoamide concentration 100 µM
Protocol: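 Cellular thermal proteome profiling in HeLa cells. Cells were treated with 100 µM lipoamide for 1 h, with or without 1 mM arsenate for a further 1 h, then heated to ten temperatures (37-66.3 °C), and soluble protein was quantified by TMT mass spectrometry relative to 0.1% DMSO controls. The thermal stability score (sum of log2 fold changes minus the abundance score) was transformed to a z-score; mean of n = 3 experiments.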

[1] = arsenate co-treatment: 1 mM arsenate 1 h
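Note: each temperature applied for 3 min, abundance score taken as mean log2 fold change at the two lowest temperatures, z-score obtained by mean subtraction and division by SD.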

Chain of UniProt Q9P0U4 (Q9P0U4 whole entry): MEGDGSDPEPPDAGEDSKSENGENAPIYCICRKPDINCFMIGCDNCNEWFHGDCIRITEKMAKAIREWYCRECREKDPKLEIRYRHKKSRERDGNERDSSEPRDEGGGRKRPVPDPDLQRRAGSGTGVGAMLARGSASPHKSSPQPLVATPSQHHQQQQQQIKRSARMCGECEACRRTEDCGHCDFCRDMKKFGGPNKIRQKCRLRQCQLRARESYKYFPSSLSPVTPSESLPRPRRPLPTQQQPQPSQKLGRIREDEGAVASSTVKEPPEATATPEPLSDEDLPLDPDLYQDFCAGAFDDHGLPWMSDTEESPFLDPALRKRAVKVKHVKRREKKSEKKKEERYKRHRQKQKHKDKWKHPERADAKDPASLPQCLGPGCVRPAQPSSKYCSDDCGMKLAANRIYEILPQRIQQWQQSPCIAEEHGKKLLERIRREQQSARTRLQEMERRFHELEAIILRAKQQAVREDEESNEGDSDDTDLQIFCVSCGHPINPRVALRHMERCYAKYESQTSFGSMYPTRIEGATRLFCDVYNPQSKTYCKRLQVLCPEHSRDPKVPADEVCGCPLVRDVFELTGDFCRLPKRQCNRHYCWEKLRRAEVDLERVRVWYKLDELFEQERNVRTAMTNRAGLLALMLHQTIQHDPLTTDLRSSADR
Chain of UniProt Q6PJG6 (Q6PJG6 whole entry): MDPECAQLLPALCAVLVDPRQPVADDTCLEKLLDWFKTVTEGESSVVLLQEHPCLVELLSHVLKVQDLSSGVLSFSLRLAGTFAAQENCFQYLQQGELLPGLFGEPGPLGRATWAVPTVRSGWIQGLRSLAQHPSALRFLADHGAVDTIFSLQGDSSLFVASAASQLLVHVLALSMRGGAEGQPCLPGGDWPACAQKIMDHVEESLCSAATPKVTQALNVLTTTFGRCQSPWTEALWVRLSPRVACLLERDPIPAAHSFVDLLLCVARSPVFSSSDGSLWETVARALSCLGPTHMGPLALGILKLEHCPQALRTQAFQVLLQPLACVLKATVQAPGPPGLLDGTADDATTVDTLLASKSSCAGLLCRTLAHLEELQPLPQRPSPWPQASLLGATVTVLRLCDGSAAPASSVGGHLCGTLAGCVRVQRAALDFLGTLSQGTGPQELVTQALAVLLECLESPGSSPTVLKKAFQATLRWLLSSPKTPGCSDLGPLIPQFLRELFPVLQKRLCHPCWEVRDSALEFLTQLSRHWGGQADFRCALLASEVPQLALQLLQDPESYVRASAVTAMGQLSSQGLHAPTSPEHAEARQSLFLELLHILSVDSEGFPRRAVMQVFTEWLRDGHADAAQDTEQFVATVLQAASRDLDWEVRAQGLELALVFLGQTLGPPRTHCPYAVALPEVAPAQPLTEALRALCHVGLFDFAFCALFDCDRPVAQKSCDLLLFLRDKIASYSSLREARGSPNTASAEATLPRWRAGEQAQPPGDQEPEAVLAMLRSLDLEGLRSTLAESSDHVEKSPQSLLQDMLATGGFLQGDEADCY
Chain of UniProt O43760 (O43760 whole entry): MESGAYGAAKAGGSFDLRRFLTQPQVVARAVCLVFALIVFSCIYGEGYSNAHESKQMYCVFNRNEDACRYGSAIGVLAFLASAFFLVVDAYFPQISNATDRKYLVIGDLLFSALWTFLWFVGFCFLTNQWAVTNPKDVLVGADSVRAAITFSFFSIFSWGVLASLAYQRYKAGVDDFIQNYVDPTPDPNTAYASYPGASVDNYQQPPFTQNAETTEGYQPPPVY
Chain of UniProt Q9BWT6 (Q9BWT6 whole entry): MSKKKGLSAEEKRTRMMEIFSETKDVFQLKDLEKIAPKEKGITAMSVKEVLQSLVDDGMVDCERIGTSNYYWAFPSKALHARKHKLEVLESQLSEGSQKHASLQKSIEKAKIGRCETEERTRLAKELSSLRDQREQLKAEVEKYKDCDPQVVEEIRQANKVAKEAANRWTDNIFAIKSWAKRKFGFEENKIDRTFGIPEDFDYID
Chain of UniProt Q9Y5Q9 (Q9Y5Q9 whole entry): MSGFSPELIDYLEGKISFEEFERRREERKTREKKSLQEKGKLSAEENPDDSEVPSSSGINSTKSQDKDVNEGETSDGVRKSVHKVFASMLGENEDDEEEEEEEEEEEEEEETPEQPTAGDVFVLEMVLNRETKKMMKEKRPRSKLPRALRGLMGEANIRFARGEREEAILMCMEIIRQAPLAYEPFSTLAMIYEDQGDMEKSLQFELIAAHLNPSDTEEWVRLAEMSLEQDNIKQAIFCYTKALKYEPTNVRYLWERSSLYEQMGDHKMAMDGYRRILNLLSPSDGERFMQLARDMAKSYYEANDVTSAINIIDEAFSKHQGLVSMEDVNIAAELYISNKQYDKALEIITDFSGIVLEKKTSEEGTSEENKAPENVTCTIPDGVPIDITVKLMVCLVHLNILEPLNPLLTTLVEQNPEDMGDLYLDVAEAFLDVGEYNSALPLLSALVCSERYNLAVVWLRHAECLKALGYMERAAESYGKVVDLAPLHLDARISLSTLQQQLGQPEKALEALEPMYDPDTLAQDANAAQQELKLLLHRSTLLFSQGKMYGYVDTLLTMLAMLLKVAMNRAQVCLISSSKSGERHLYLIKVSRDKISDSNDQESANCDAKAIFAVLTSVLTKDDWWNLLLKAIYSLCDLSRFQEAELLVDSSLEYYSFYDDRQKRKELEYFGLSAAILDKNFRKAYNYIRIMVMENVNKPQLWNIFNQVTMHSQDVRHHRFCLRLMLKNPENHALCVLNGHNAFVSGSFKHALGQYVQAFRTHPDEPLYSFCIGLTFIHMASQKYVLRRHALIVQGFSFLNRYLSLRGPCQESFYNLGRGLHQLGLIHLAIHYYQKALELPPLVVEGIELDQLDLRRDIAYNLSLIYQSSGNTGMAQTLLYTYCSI
Chain of UniProt Q5T280 (Q5T280 whole entry): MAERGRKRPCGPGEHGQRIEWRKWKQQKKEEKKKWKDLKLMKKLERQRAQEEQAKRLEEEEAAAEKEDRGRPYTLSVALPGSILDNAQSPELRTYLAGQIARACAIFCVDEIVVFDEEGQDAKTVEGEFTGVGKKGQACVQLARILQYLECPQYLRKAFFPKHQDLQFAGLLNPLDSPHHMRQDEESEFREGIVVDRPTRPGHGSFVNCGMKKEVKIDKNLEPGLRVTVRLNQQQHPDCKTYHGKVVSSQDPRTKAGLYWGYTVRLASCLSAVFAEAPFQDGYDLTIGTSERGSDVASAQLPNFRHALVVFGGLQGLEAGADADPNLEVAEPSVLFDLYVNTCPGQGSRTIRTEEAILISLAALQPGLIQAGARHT
Chain of UniProt P55145 (P55145 whole entry): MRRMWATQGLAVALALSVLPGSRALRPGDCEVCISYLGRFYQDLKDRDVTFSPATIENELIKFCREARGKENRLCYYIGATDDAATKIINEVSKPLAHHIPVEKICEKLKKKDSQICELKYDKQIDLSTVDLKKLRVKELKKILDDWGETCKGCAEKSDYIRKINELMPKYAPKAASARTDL
Chain of UniProt A9UHW6 (A9UHW6 whole entry): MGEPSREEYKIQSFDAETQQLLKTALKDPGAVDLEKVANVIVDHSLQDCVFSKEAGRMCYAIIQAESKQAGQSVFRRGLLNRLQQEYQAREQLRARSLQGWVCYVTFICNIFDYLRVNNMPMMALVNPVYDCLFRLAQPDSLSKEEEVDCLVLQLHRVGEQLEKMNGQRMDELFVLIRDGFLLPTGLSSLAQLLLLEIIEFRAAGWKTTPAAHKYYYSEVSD
Chain of UniProt P57105 (P57105 whole entry): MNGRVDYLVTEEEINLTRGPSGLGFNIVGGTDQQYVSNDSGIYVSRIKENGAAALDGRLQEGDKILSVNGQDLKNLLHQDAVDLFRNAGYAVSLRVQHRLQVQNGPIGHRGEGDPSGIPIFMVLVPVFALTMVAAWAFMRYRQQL
Chain of UniProt P49427 (P49427 whole entry): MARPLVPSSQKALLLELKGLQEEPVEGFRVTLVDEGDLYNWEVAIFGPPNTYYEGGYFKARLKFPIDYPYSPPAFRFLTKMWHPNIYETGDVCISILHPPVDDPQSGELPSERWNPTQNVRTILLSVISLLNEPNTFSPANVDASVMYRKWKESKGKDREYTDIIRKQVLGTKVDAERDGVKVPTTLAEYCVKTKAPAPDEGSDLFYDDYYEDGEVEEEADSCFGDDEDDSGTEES
Chain of UniProt P57060 (P57060 whole entry): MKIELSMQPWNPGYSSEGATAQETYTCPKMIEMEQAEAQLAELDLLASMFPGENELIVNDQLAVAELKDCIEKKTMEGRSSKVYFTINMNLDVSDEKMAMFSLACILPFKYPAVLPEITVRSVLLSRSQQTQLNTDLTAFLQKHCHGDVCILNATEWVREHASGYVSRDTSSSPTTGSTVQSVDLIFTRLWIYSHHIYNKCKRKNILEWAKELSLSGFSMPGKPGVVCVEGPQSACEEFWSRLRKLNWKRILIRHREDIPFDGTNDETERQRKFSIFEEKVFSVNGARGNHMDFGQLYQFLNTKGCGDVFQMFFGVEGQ
Chain of UniProt O14530 (O14530 whole entry): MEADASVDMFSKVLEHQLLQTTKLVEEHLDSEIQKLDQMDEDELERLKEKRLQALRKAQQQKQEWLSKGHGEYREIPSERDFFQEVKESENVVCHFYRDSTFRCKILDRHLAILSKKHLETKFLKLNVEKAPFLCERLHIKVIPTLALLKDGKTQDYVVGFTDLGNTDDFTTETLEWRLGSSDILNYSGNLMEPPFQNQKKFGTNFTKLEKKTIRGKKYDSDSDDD
Chain of UniProt Q9UQN3 (Q9UQN3 whole entry): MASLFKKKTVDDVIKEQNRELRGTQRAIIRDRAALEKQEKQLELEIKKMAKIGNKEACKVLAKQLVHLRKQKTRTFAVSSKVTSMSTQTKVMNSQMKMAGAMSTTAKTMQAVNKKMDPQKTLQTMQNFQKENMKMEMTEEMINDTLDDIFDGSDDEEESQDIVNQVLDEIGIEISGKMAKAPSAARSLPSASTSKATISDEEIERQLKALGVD

| Target | thermal stability z-score (potassium arsenate) | thermal stability z-score (lipoamide; [1]) | thermal stability z-score (lipoamide; arsenate co-treatment: none) |
| --- | --- | --- | --- |
| PSME2 (UniProt Q9UL46) | 0.951 | 0.493 | 0.0915 |
| SYNJ2BP (UniProt P57105) | 0.518 | 0.988 | 0.247 |
| CXXC1 (UniProt Q9P0U4) | 0.00172 | -0.00204 | 0.187 |
| G3BP2 (UniProt Q9UN86) | 0.561 | -0.0281 | -0.411 |
| SYNGR2 (UniProt O43760) | -0.0246 | 0.329 | 0.548 |
| CDC34 (UniProt P49427) | 0.0868 | -0.142 | -0.0805 |
| PRNP | 0.0499 | 0.0235 | 0.239 |
| TNS2 (UniProt Q63HR2) | -0.101 | -0.0104 | -0.0152 |
| SPATA20 (UniProt Q8TB22) | -0.121 | 0.172 | 0.136 |
| TMED4 (UniProt Q7Z7H5) | 0.0343 | -0.192 | -0.249 |
| RELA (UniProt Q04206) | 0.374 | 0.384 | 0.867 |
| HSPG2 (UniProt P98160) | 2.43 | 0.252 | 0.126 |
| OGFR (UniProt Q9NZT2) | 1.72 | 0.681 | 0.943 |
| BRAT1 (UniProt Q6PJG6) | 0.562 | -0.267 | -0.15 |
| RPL12 (UniProt P30050) | -0.459 | 0.344 | 0.0511 |
| MND1 (UniProt Q9BWT6) | 0.296 | -0.235 | -0.0119 |

| Target | thermal stability z-score (potassium arsenate) | thermal stability z-score (lipoamide; [1]) | thermal stability z-score (lipoamide; arsenate co-treatment: none) |
| --- | --- | --- | --- |
| CD55 (UniProt P08174) | 0.446 | 0.266 | 0.169 |
| MANF (UniProt P55145) | 0.0791 | 0.0932 | -0.0959 |
| SUCLA2 (UniProt Q9P2R7) | -0.411 | 0.0341 | 0.0719 |
| MIF4GD (UniProt A9UHW6) | -0.165 | 0.658 | 0.0749 |
| TXNDC9 (UniProt O14530) | 0.0909 | -0.0714 | -0.127 |
| PSMB7 (UniProt Q99436) | 0.481 | 1.04 | 0.99 |
| PEX16 (UniProt Q9Y5Y5) | -0.441 | -1.58 | -0.719 |
| PML (UniProt P29590) | 5.01 | 1.95 | 0.537 |
| SLC22A18 (UniProt Q96BI1) | -0.0251 | 0.00763 | -0.34 |
| GTF3C3 (UniProt Q9Y5Q9) | -0.461 | -0.0672 | 0.0153 |
| C9ORF114 (UniProt Q5T280) | -0.288 | 0.288 | 0.265 |
| ACSL3 (UniProt O95573) | -0.39 | -0.87 | -0.498 |
| MCOLN1 (UniProt Q9GZU1) | -1.27 | -0.724 | -0.559 |
| CHMP2B (UniProt Q9UQN3) | 0.573 | 0.562 | 0.348 |
| RWDD2B (UniProt P57060) | -0.0179 | 0.0612 | -0.0257 |

Source: the supplement of paper PMC12463676, “Small-molecule dissolution of stress granules by redox modulation benefits ALS models” (Nature Chemical Biology, 2025)
